These results are taken from PMC5423775, “Structure of a AAA+ unfoldase in the process of unfolding substrate” (eLife, 2017).

One experiment deals with T1, ΔN-VAT (Thermoplasma acidophilum, UniProt O05209).
T1 construct: N-terminal regulatory domain removed (Methods: 181 residues deleted; b5 says first 182), NBD1 + NBD2; N-terminal His6 tag with TEV site, pProEx vector; homohexamer
Description: cryo-EM structure, […] Å. The following applies: 5 mM ATPγS, 50 mM HEPES pH 7.5, 100 mM NaCl; all twelve NBD1 and NBD2 nucleotide sites; six-fold symmetric stacked-ring state. In kind it is binding.

Experiment [1] deals with ΔN-VAT (Thermoplasma acidophilum VAT with the regulatory N-terminal domain removed) (Thermoplasma acidophilum) (UniProt O05209). Put plainly: cryo-EM structure; purified ΔN-VAT at ~20 mg/mL, 50 mM HEPES pH 7.5, 100 mM NaCl, 5 mM ATPγS, 0.05% IGEPAL CA-630; six-fold symmetric stacked-ring class (~85% of particle images), C6 symmetry applied, 3.9 Å.

T1 sequence (O05209 182-745, stated change not applied): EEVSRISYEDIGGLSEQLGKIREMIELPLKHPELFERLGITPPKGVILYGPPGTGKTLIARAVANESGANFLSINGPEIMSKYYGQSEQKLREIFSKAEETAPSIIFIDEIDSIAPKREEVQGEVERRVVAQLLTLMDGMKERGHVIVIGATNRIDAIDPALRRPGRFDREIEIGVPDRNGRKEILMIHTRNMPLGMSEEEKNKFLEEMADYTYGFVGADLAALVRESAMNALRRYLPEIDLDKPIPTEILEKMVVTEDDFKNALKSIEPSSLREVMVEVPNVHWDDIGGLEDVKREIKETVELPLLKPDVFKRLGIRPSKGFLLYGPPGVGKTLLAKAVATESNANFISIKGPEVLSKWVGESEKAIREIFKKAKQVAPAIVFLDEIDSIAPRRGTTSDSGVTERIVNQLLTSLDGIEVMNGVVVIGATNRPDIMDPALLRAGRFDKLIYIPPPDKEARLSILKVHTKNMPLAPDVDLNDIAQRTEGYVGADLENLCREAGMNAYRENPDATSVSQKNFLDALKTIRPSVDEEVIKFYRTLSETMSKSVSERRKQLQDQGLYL

On to `Nc1ncnc2c1ncn2[C@@H]1O[C@H](COP(=O)(O)OP(=O)(O)OP(O)(O)=S)[C@@H](O)[C@H]1O` [ATPγS], for which the “cryo-EM structure, 3.9 Å” value on ΔN-VAT is on record as “Density corresponding to ATPγS is visible in all twelve catalytic sites”.
Compound “ΔN-VAT (Thermoplasma acidophilum VAT with the regulatory N-terminal domain removed) (from UniProt O05209 182-745) (enzyme)” registered a stoichiometry N in experiment [1] of 6.

Usually stoichiometry N stands for a count of units in the complex or per binding partner.
